The results in this text go back to ChEMBL document CHEMBL4049438, “Discovery and Optimization of Isoquinoline Ethyl Ureas as Antibacterial Agents” (J Med Chem, 2017).

Values after ≈ are worked out from the molar mass of the structure shown.

Data set [1] in a line: Half life in human blood at 1 uM by LC-MS/MS analysis. The data set is classed as ADME, tissue-based.
Data set [2] deals with Rattus norvegicus. Kind of data set: AUC in Wistar rat assessed as [3-(3-Ethyl-ureido)-5-(2-methyl-pyridin-4-yl)-isoquinolin-8-ylmethyl]-carbamic Acid Methyl Ester at 0.64 mg/kg, iv administered as solution up to 24 hrs by LC-MS/MS analysis. Details: time < 24 hr, dose 0.64 mg/kg, route intravenous. The following applies: in vivo. The data set is classed as ADME, organism-based.

For data set [3], the system named is Rattus norvegicus. The experiment in a line: Half life in Wistar rat assessed as [3-(3-Ethyl-ureido)-5-(2-methyl-pyridin-4-yl)-isoquinolin-8-ylmethyl]-carbamic Acid Methyl Ester at 0.64 mg/kg, iv administered as solution up to 24 hrs by LC-MS/MS analysis. The data set is classed as ADME, organism-based. The conditions noted are these: in vivo.
For data set [4], the system named is Rattus norvegicus. The experiment in a line: Volume of distribution in steady state in Wistar rat assessed as [3-(3-Ethyl-ureido)-5-(2-methyl-pyridin-4-yl)-isoquinolin-8-ylmethyl]-carbamic Acid Methyl Ester at 0.64 mg/kg, iv administered as solution up to 24 hrs by LC-MS/MS analysis. The data set is classed as ADME, organism-based. The following applies: in vivo.

Data set [5] is described as follows: AUC in Wistar rat at 0.64 mg/kg, iv administered as solution up to 24 hrs by LC-MS/MS analysis. The data set is classed as ADME, organism-based. Details: time < 24 hr, dose 0.64 mg/kg, route intravenous. The following applies: in vivo.
Data set [6] is described as follows: Clearance in Wistar rat at 0.64 mg/kg, iv administered as solution up to 24 hrs by LC-MS/MS analysis. The conditions noted are these: in vivo. The data set is classed as ADME, organism-based.
Data set [7] in a line: Half life in Wistar rat at 0.64 mg/kg, iv administered as solution up to 24 hrs by LC-MS/MS analysis. The data set is classed as ADME, organism-based. The conditions noted are these: in vivo.
Data set [8] in a line: Volume of distribution in steady state in Wistar rat at 0.64 mg/kg, iv administered as solution up to 24 hrs by LC-MS/MS analysis. The data set is classed as ADME, organism-based. The conditions noted are these: in vivo, read-out: Vdss.
Data set [9] relates to Rattus norvegicus. Kind of data set: AUC in Wistar rat assessed as [3-(3-Ethyl-ureido)-5-(2-methyl-pyridin-4-yl)-isoquinolin-8-ylmethyl]-carbamic Acid Methyl Ester at […], po administered as suspension up to 24 hrs by LC-MS/MS analysis. The data set is classed as ADME, organism-based. The conditions noted are these: in vivo.
For data set [10], the system named is Rattus norvegicus. The experiment in a line: Cmax in Wistar rat assessed as [3-(3-Ethyl-ureido)-5-(2-methyl-pyridin-4-yl)-isoquinolin-8-ylmethyl]-carbamic Acid Methyl Ester at […], po administered as suspension up to 24 hrs by LC-MS/MS analysis. The data set is classed as ADME, organism-based. The conditions noted are these: in vivo.
Data set [11] concerns Rattus norvegicus. The experiment in a line: Tmax in Wistar rat assessed as [3-(3-Ethyl-ureido)-5-(2-methyl-pyridin-4-yl)-isoquinolin-8-ylmethyl]-carbamic Acid Methyl Ester at […], po administered as suspension up to 24 hrs by LC-MS/MS analysis. The data set is classed as ADME, organism-based. The conditions noted are these: in vivo.
Data set [12] deals with Rattus norvegicus. The experiment in a line: Oral bioavailability in Wistar rat assessed as [3-(3-Ethyl-ureido)-5-(2-methyl-pyridin-4-yl)-isoquinolin-8-ylmethyl]-carbamic Acid Methyl Ester at […] administered as suspension up to 24 hrs by LC-MS/MS analysis. The data set is classed as ADME, organism-based. The conditions noted are these: in vivo.
Data set [13] relates to Rattus norvegicus. The experiment in a line: AUC in Wistar rat at […], po administered as suspension up to 24 hrs by LC-MS/MS analysis. The data set is classed as ADME, organism-based. The conditions noted are these: in vivo, BLD = below limit of detection.
A short description of data set [14]: Half life in rat blood at 1 uM by LC-MS/MS analysis. The data set is classed as ADME, tissue-based.
Data set [15] can be described thus: Solubility of compound in water at pH 6.3. The data set is classed as physicochemical.
Data set [16] in a line: Stability of the compound at room temperature for weeks. The data set is classed as physicochemical.
The nature of data set [17]: Half life in mouse blood at 1 uM by LC-MS/MS analysis. The data set is classed as ADME, tissue-based.
Data set [18] relates to Staphylococcus aureus. Kind of data set: Antibacterial activity against methicillin-sensitive Staphylococcus aureus A-1178 infected in neutropenic mouse assessed as change in bacterial burden in thighs at […], iv administered every 2.75 hrs for 2 times measured 6.5 hrs post infection. The data set is classed as functional.
Data set [19] concerns Staphylococcus aureus. Kind of data set: Antibacterial activity against methicillin-sensitive Staphylococcus aureus A-1178 infected in neutropenic mouse assessed as change in bacterial burden in thighs at 38.4 mg/kg, iv administered every 2.75 hrs for 2 times measured 6.5 hrs post infection. The data set is classed as functional.

One may read the half-life as how long it takes for the measured level to halve. A low value points to fast loss. As usually defined, the AUC is concentration integrated over time. The term Vdss denotes a proportionality between amount in the body and measured concentration, not a real space. In general, clearance refers to a measure of how efficiently the substance is removed, as volume per time. Read a low clearance as a low capacity for elimination. One may read the Cmax as the maximum level reached in the sampled fluid or tissue. Broadly, the Tmax is the time at which the peak concentration occurs. As a reminder, the solubility is the dissolved amount per volume that the medium holds. The low end stands for little dissolved substance, the high end for much dissolved substance. Turning to `CCNC(=O)Nc1cc2c(-c3cc[n+](COP(=O)([O-])O)c(C)c3)ccc(CNC(=O)OC)c2cn1`, the results for the half-life at 1 µM in [1], in [14] and in data set [17] were 18 min, 60 min and 96 min, respectively. Further, the AUC is 301 ng·h/mL in the data set with Rattus norvegicus [2], 310 ng·h/mL in the data set with Rattus norvegicus [9] and “Bld” in the data set on Rattus norvegicus [13]. Also, the t1/2 with Rattus norvegicus [3] turned out to be 48 min. Besides, the Vdss in the data set on Rattus norvegicus [4] turned out to be 1.1 L/kg. Further, the AUC at 24 h in [5] came to 79 ng·h/mL. Further, the clearance in data set [6] was 130 mL/min/kg. In [7], this compound had a half-life of 12 min. Further, the Vd in data set [8] stood at 0.5 L/kg. In addition, the Cmax in the data set on Rattus norvegicus [10] came to 250 ng/mL. Besides, the time to peak (Tmax) in the data set on Rattus norvegicus [11] was 30 min. In addition, the F in the data set on Rattus norvegicus [12] is 30%. This compound also registered a solubility in data set [15] of 12.7 mg/mL (≈ 25.2 mM). Further, the Stability entry in data set [16] was “Stable”. Also, the figures for the Activity in the data set with Staphylococcus aureus [18] and in the data set on Staphylococcus aureus [19] were -3.6 deltalog10CFU and under -4.8 deltalog10CFU, respectively.
